According to BindingDB's records for doi:10.1016/j.bmcl.2009.10.054 (AstraZeneca, 2009):

Assay: Inhibition of erythropoietin-stimulated STAT5 expressed in human U2OS cells

EC50: 0.04 µM
SMILES: Cc1cc(Nc2nc(N[C@@H](C)c3ncc(F)cn3)c(C#N)nc2C)[nH]n1 [(S)-3-(1-(5-fluoropyrimidin-2-yl)ethylamino)-6-methyl-5-(5-methyl-1H-pyrazol-3-ylamino)pyrazine-2-carbonitrile]
